This is an account of results in patent publication US8129415B2.

One series in a line: logP by HPLC on reversed-phase column (C 18), EEC Directive 79/831 Annex V.A8. It is filed as physicochemical.
Details: not given
On to `Cc1nnnn1/C(=N/OCc1csc(NC(=O)C(C)(C)C)n1)c1ccc(Cl)nc1` [compound 31], for which the chromatographic logP is 2.9.
Turning to `Cc1cccc(/C(=N\OCc2cccc(N)n2)n2nnnc2C)n1` [compound 87, O-(2-Aminopyridin-6-yl)methyl-(6-methylpyridin-2-yl)-(5-methyltetrazol-1-yl)methanone oxime], the chromatographic logP amounted to 1.18.
On the same count and under the same terms, in the case of `CCCCCC(=O)Nc1cccc(CO/N=C(\c2cccc(C)n2)n2nnnc2C)n1` [compound 92, O-[2-(Pentylcarbonylamino)pyridin-6-yl]methyl-(6-methylpyridin-2-yl)-(5-methyltetrazol-1-yl)methanone Oxime] it was 3.43; in that of `Cc1cccnc1/C(=N\OCc1csc(N)n1)c1nnnn1C` [compound 157, O-(2-Amino-1,3-thiazol-4-yl)methyl-(3-methylpyridin-2-yl)-(1-methyltetrazol-5-yl)methanone Oxime], 1.04; in that of `CCCCCC(=O)Nc1nc(CO/N=C(\c2ncccc2C)c2nnnn2C)cs1` [compound 158, O-(2-Pentylcarbonylmino-1,3-thiazol-4-yl)methyl-(3-methylpyridin-2-yl)-(1-methyltetrazol-5-yl)methanone oxime], 2.94.

The series is the same for the next values; noted with them: HPLC reversed-phase C 18, 40° C., 0.1% aqueous formic acid and acetonitrile gradient.
As to `Cc1nnnn1C(=NOCc1csc(N)n1)c1ccccn1` [compound 1], the LogP stood at 0.83.
Turning to `C=C(C)C(=O)Nc1nc(CON=C(c2ccccn2)n2nnnc2C)cs1` [compound 3], the LogP worked out at 2.06.
The same measure, in the same setting: in the case of `CCCCCC(=O)Nc1nc(CON=C(c2ccccn2)n2nnnc2C)cs1` [compound 4] it was 2.7; in that of `Cc1nnnn1C(=NOCc1nonc1N)c1ccccn1` [compound 6], 1.52.
On the same count and under the same terms, in the case of `Cc1nc(CON=C(c2ccccn2)n2nnnc2C)cs1` [compound 7] it was 1.76.
The same measure, in the same setting: the same measure for `Cc1nnnn1C(=NOCc1cccc(N)n1)c1ccccn1` [compound 9]: 0.76; for `Cc1nnnn1C(=NOCc1noc(-c2ccco2)n1)c1ccccn1` [compound 11]: 2.38; for `Cc1nnnn1C(=NOCc1csc(NC(=O)C2CC2)n1)c1ccccn1` [compound 14]: 1.99.
In turn, `Cc1nnnn1C(=NOCc1csc(NC(=O)NCc2ccccc2)n1)c1ccccn1` [compound 15] gave a lipophilicity (LogP) of 2.15.
Compound `CCCNC(=O)Nc1nc(CON=C(c2ccccn2)n2nnnc2C)cs1` [compound 19] registered a LogP of 1.95.
Same read-out and setting: in the case of `Cc1nnnn1C(=NOCc1nsc(N)n1)c1ccccn1` [compound 21] it was 1.3; in that of `COc1ccc(CCNC(=O)Nc2nc(CON=C(c3ccccn3)n3nnnc3C)cs2)cc1` [compound 22], 2.44.
Same read-out and setting: the same measure for `Cc1nnnn1C(=NOCc1csc(NC(=O)NCCc2cccc(Cl)c2)n1)c1ccccn1` [compound 24]: 2.79; for `Cc1nnnn1C(=NOCc1csc(NC(=O)NC2CC2)n1)c1ccccn1` [compound 26]: 1.61; for `Cc1nnnn1C(=NOCc1csc(NC(=O)NC(C)(C)C)n1)c1ccccn1` [compound 28]: 2.16.
With `Cc1nnnn1C(=NOCc1csc(NC(=O)C2CCCCC2)n1)c1ccc(Cl)nc1` [compound 32], the LogP stood at 3.16.
Still for that read-out and setting: in the case of `Cc1nnnn1C(=NOCc1nonc1N)c1ccc(Cl)nc1` [compound 33] it was 1.88; in that of `Cc1nnnn1C(=NOCc1csc(N)n1)c1ccc(Cl)nc1` [compound 34], 1.27.
The compound `Cc1nnnn1C(=NOCc1csc(NC(=O)c2ccccc2)n1)c1ccc(Cl)nc1` [compound 36] registered a LogP of 2.87.
The compound `Cc1nnnn1C(=NOCc1csc(NC(=O)C2CC2)n1)c1ccc(Cl)nc1` [compound 39] registered a LogP of 2.36.
Turning to `Cc1nc(CON=C(c2ccc(Cl)nc2)n2nnnc2C)cs1` [compound 40], the LogP is given as 2.33.
Same read-out and setting: in the case of `Cc1nnnn1C(=NOCc1nsc(N)n1)c1ccc(Cl)nc1` [compound 44] it was 1.78.
Same read-out and setting: in the case of `Cc1nnnn1C(=NOCc1csc(NC(=O)NC2CC2)n1)c1ccc(Cl)nc1` [compound 48] it was 1.98; in that of `Cc1nnnn1C(=NOCc1nc(Cc2ccccc2)no1)c1ccc(Cl)nc1` [compound 49], 3.09.
Same read-out and setting: the same measure for `Cc1nnnn1C(=NOCc1noc(-c2ccc(C(C)(C)C)cc2)n1)c1ccc(Cl)nc1` [compound 50]: 4.47.
For the compound `COc1ccc(C(=O)Nc2nc(CON=C(c3ccc(Cl)nc3)n3nnnc3C)cs2)cc1` [compound 57], the LogP is recorded as 2.97.
The same measure, in the same setting: the same measure for `Cc1nnnn1C(=NOCc1csc(NC(=O)C2CCCC2)n1)c1ccc(Cl)nc1` [compound 58]: 2.97.
`Cc1nnnn1C(=NOCc1csc(NC(=O)c2cccs2)n1)c1ccc(Cl)nc1` [compound 59] returned a LogP of 2.82.
On the same count and under the same terms, the same measure for `Cc1nnnn1C(=NOCc1csc(NC(=O)c2ccco2)n1)c1ccc(Cl)nc1` [compound 69]: 2.46.
On the same count and under the same terms, the same measure for `COCCC(=O)Nc1nonc1CON=C(c1ccc(Cl)nc1)n1nnnc1C` [compound 72]: 2.17; for `Cc1ccc(OC(=O)Nc2nc(CON=C(c3ccc(Cl)nc3)n3nnnc3C)cs2)cc1` [compound 76]: 3.48.
On the same count and under the same terms, in the case of `COCCOCC(=O)Nc1nc(CON=C(c2ccc(Cl)nc2)n2nnnc2C)cs1` [compound 78] it was 2.4.
With `Cc1cccc(C(=NOCc2csc(N)n2)n2nnnc2C)n1` [compound 80], the LogP was 1.2.
Same read-out and setting: in the case of `CCCC(=O)Nc1nc(CON=C(c2cccc(C)n2)n2nnnc2C)cs1` [compound 82] it was 2.38; in that of `Cc1cccc(C(=NOCc2csc(NC(=O)c3ccccc3)n2)n2nnnc2C)n1` [compound 83], 2.78; in that of `Cc1cccc(C(=NOCc2nonc2N)n2nnnc2C)n1` [compound 84], 1.94.
Take `Cc1cccc(C(=NOCc2noc(-c3cccc(C(F)(F)F)c3)n2)n2nnnc2C)n1` [compound 86]: the LogP amounted to 3.67.
The same measure, in the same setting: in the case of `CCCC(=O)Nc1cccc(CON=C(c2cccc(C)n2)n2nnnc2C)n1` [compound 90] it was 2.7; in that of `Cc1cccc(C(=NOCc2noc(-c3ccc(C(C)(C)C)cc3)n2)n2nnnc2C)n1` [compound 93], 4.5; in that of `Cc1cccc(C(=NOCc2noc(-c3ccccc3)n2)n2nnnc2C)n1` [compound 95], 3.11.
Same read-out and setting: in the case of `Cc1cccc(C(=NOCc2nsc(N)n2)n2nnnc2C)n1` [compound 96] it was 1.59; in that of `C=C(C)C(=O)Nc1nc(CON=C(c2cccc(C)n2)n2nnnc2C)cs1` [compound 97], 2.4.
The compound `COC(=O)c1coc(CON=C(c2cccc(C)n2)n2nnnc2C)n1` [compound 98] yielded a LogP of 2.01.
`Cc1cccc(C(=NOCc2csc(NC(=O)NCCc3ccc(Cl)c(Cl)c3)n2)n2nnnc2C)n1` [compound 102] displayed a LogP of 3.34.
The same measure, in the same setting: in the case of `CCCNC(=O)Nc1nc(CON=C(c2cccc(C)n2)n2nnnc2C)cs1` [compound 103] it was 2.17; in that of `COc1cccc(CNC(=O)Nc2nc(CON=C(c3cccc(C)n3)n3nnnc3C)cs2)c1` [compound 104], 2.59; in that of `Cc1cccc(C(=NOCc2csc(NC(=O)NCCc3ccc(F)cc3)n2)n2nnnc2C)n1` [compound 105], 2.78.
Same read-out and setting: the same measure for `Cc1cccc(C(=NOCc2csc(NC(=O)NCCc3ccc(Cl)cc3Cl)n2)n2nnnc2C)n1` [compound 106]: 3.43.
Same read-out and setting: in the case of `Cc1cccc(C(=NOCc2csc(NC(=O)NCCc3ccccc3)n2)n2nnnc2C)n1` [compound 107] it was 2.72.
With `COc1ccccc1CNC(=O)Nc1nc(CON=C(c2cccc(C)n2)n2nnnc2C)cs1` [compound 108], the LogP came out at 2.69.
Same read-out and setting: the same measure for `CCCCCC(=O)Nc1nc(CON=C(c2cnccc2OC)n2nnnc2C)cs1` [compound 136]: 3.44; for `COc1ccncc1C(=NOCc1csc(NC(=O)c2ccccc2)n1)n1nnnc1C` [compound 137]: 3.13; for `COCCC(=O)Nc1nc(CON=C(c2cnccc2OC)n2nnnc2C)cs1` [compound 138]: 2.25.
Still for that read-out and setting: in the case of `COc1ccncc1C(=NOCc1csc(NC(=O)CCc2ccccc2)n1)n1nnnc1C` [compound 139] it was 3.31; in that of `CCCCCCCCOC(=O)Nc1nc(CON=C(c2cnccc2OC)n2nnnc2C)cs1` [compound 147], 5.03; in that of `COc1ncccc1C(=NOCc1cccc(N)n1)n1nnnc1C` [compound 152], 1.03.
On the same count and under the same terms, in the case of `COc1ncccc1C(=NOCc1nc(N)sc1Br)n1nnnc1C` [compound 153] it was 2.27.
`COc1ncccc1C(=NOCc1csc(N)n1)n1nnnc1C` [compound 154] gave a LogP of 1.24.
`Cc1cccnc1C(=NOCc1csc(NC(=O)Cc2ccccc2)n1)c1nnnn1C` [compound 159] gave a LogP of 2.62.
